Data: PubChem BioAssay (NCI)
Where “and” joins values, the source holds several entries; their conditions need not be identical. Equal values may be shown once.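 Method: 48-hour compound exposure of cells in 96-well plates, five concentrations, linear interpolation of endpoints. Here, GI50 denotes the concentration required for 50% inhibition of growth. Definition used: TGI = concentration required for complete inhibition of growth.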

How the values were obtained:
Test in all cases: NCI-60 cell line screen, 48 h
A498 renal = test system: A498 renal
SNB-75 CNS = test system: SNB-75 CNS
SK-MEL-5 melanoma = test system: SK-MEL-5 melanoma
SR leukemia = test system: SR leukemia
SF-295 CNS = test system: SF-295 CNS
NCI/ADR-RES ovarian = test system: NCI/ADR-RES ovarian
U251 CNS = test system: U251 CNS
SNB-19 CNS = test system: SNB-19 CNS
OVCAR-5 ovarian = test system: OVCAR-5 ovarian
HL-60(TB) leukemia = test system: HL-60(TB) leukemia

SMILES	GI50 (A498 renal) [µM]	TGI (A498 renal) [µM]	GI50 (SNB-75 CNS) [µM]	GI50 (SK-MEL-5 melanoma) [µM]	TGI (SK-MEL-5 melanoma) [µM]	GI50 (SR leukemia) [µM]	TGI (SR leukemia) [µM]	GI50 (SF-295 CNS) [µM]	TGI (SF-295 CNS)	GI50 (NCI/ADR-RES ovarian) [µM]	GI50 (U251 CNS) [µM]	TGI (U251 CNS) [µM]	GI50 (SNB-19 CNS) [µM]	TGI (SNB-19 CNS) [µM]	GI50 (OVCAR-5 ovarian) [µM]	TGI (OVCAR-5 ovarian)	GI50 (HL-60(TB) leukemia) [µM]	TGI (SNB-75 CNS)	TGI (NCI/ADR-RES ovarian)	TGI (HL-60(TB) leukemia)
Cc1nc2sc(C(=O)Nc3cccc(Cl)c3C)c(N)c2cc1C(=O)c1ccccc1	0.124	1.64	0.121	0.278	6.13	0.131	16.9	0.179	> 10.6 µM	0.192	0.219	> 50	0.222	> 50	1.26	> 50 µM	0.147	–	–	–
O=C(c1ccncc1)N1CCN(C2=NS(=O)(=O)c3ccccc3N2c2ccccc2)CC1	19.7	36.9	15.5	11.6	24.1	0.177	2.42	9.87	> 100 µM	> 100	8.32	> 100	15	44.9	33.4	> 100 µM	17.1	53.2 µM	> 100 µM	> 100 µM
C/C=C1\C[C@@H]2C(OC)Nc3cc(O)c(OC)cc3C(=O)N2C1 (stereo partly drawn)	–	0.0834	0.00482	0.00327	0.00889	–	0.0602	0.00328	0.467 µM and 1.43 µM	–	0.00353	10.1	–	–	0.00775	0.0632 µM and 0.306 µM	0.00226	0.0205 µM and 0.0167 µM	0.0384 µM and < 0.0116 µM	0.216 µM and 0.0852 µM
COc1cc([N+](=O)[O-])c(OC)cc1-c1nc2n(c1/C(N)=N/C(=N)N)CCS2	> 100	> 100	6.76	75.3	> 100	–	–	37.6	> 100 µM	> 100	9.12	> 100	10.2	> 100	> 100	> 100 µM	> 100	> 100 µM	> 100 µM	> 100 µM
Cc1ccc2nc(CC(=O)c3ccc4ccccc4c3)c(=O)[nH]c2c1	–	> 100	–	–	> 100	–	> 100	–	> 100 µM	–	–	> 100	–	> 100	–	> 100 µM	–	> 100 µM	> 100 µM	> 100 µM
O=C(Nc1ccc(Cl)cc1F)c1cc(Cl)ccc1O	0.26	0.924	0.456	0.209	0.529	2.2	> 49.3	0.99	2.67 µM	0.364	0.466	> 100	0.413	> 100	2.74	> 100 µM	0.389	3.77 µM	2.38 µM	1.96 µM
CC(=O)OC1CC(C)c2c(Cl)ncnc21 (stereo not drawn)	> 100	> 100	> 100	> 100	> 100	78.2	> 100	–	–	> 100	–	–	> 100	> 100	> 100	> 100 µM	> 100	> 100 µM	> 100 µM	> 100 µM
Cc1cccc2c1NC(=O)C2(c1ccc(O)cc1)c1ccc(O)cc1	0.559	25.1	0.0601	15.9	33.2	14	45.4	12.6	38.1 µM	0.133	18.9	48.9	28.5	> 100	12.8	67.1 µM	7.64	37.5 µM	> 100 µM	39.6 µM
CC(C)NCCCCCNc1cc(O)cc2cccnc12	–	> 100	> 58.2	98.1	> 100	> 100	> 100	> 100	> 100 µM	> 100	> 100	> 100	> 100	> 100	> 100	> 100 µM	0.751	> 100 µM	> 100 µM	4.36 µM
O=C1C(Cl)=C(Nc2ccccn2)C(=O)c2ccccc21	12.9	25.6	2	1.65	3.03	2.49	5.32	–	–	3.23	3.24	11	4.53	16.3	7.42	23.2 µM	2.52	4.49 µM	17.2 µM	5.83 µM
O=C(Nc1ccc(O)c(NS(=O)(=O)c2ccc(F)cc2)c1)c1ccc(-c2ccccc2)cc1	13.4	26.7	2.68	6.42	19.3	2.47	9.3	9.71	24 µM	5.67	9.07	26.1	14.4	34.2	13.6	27 µM	1.4	15.7 µM	20.7 µM	5.34 µM
COc1cc(C2C(C(=O)OCc3ccccc3)=C(C)NC(C)=C2C(=O)OCc2ccccc2)cc(OC)c1OC	1.75	> 100	4.69	–	–	2.22	> 100	2.86	> 100 µM	3.06	4.37	> 100	5.73	> 100	–	–	–	> 100 µM	> 100 µM	–
CS(=O)(=O)N(CC(=O)O)Cc1ccccc1	–	> 100	–	–	> 100	–	> 100	–	> 100 µM	–	–	> 100	–	> 100	–	> 100 µM	–	> 100 µM	> 100 µM	–
Nc1nc(Cl)nc2c1ncn2C1CCC(COP(=O)(O)OP(=O)(O)OP(=O)(O)O)O1 (stereo not drawn)	–	> 100	–	–	–	–	> 100	–	58.4 µM	–	–	> 100	–	> 100	–	93.3 µM	–	94.2 µM	55.8 µM	63.7 µM
Cc1ccc(C(CC(=O)c2ccccc2)C(C(=O)c2ccccc2)C(c2ccc(C)cc2)C2C(=O)NC(=S)NC2=O)cc1 (stereo not drawn)	18.3	> 50	> 50	10.6	> 50	–	–	12.2	> 50 µM	8.05	16.3	> 50	25.1	> 50	31	> 50 µM	18.7	> 50 µM	> 50 µM	> 50 µM
